Measured values published in US20210267992A1, “5-ACETAMIDOMETHYL-OXAZOLIDINONE DERIVATIVES FOR USE IN THE TREATMENT OF CANCER” (Varsity Pharmaceuticals Limited, priority 2018, published 2021).
“Also recorded” adds a separate entry of the source.

Key:
[1] = system: BRCA1 deficient ovarian cancer cells, UWB1.289; assay: BrdU proliferation assay, single drugs after cisplatin; type: cell-based; conditions: cisplatin 1 μM for 24 hours followed by the drug alone for 6 days, result in words
Protocol: (§1) Methods • Cell morphology, viability and proliferation rate was assessed by visual and counting method. • Day 0: Cells were split and around 1000 cells/well were seeded in normal complete media. • Day 1: Cisplatin was added at 1 μM to the test and controls wells. Untreated cells were left as control. • Day 2: medium containing cisplatin was discarded and new fresh media containing bromodeoxyuridine (BrdU) and the drugs at the concentrations shown in table 1, below, was added. • Day 6: medium was discarded, and cells fixed. BrdU assay was performed according to the manufacturer. • Controls comprised cells without BrdU (Blank), untreated cells (UN) and Cisplatin treated cells for 24 hours only (CIS). • All experiments were conducted in triplicate.
(§2) BrdU Proliferation Assay • After 6 days of incubation with drugs, the media was discarded, and cells were fixed for 30 minutes, at room temperature, with FixDenat Solution. • FixDenat Solution was then removed and substituted with Anti-BrdU-POD working solution for 2 hours at room temperature. • Plates were then washed 3 times with Washing buffer. • Substrate solution was added. • The reaction was stopped by adding H2SO4 and immediately read at 450 nm.
Data was analysed using Excel and Prism software. The average of the absorbances and the standard error were calculated using the technical triplicate for each condition.

UWB1.289 cell line = assay: BrdU proliferation assay, combinations of PARPis and ATR inhibitors after cisplatin; type: cell-based; conditions: for proliferation in combination with Aurothiomalate (ATM), compared with the gold complex alone: then Aurothiomalate (ATM) plus the labelled drug for 6 days; for proliferation in combination with auranofin, compared with the gold complex alone: then auranofin plus the labelled drug for 6 days
Protocol: as §1, §2
The methods were the same as described in example 1 except that the new fresh media added on day 2 contained bromodeoxyuridine (BrdU) and the drugs at the concentrations shown in table 2, below. All possible combinations of concentrations for compounds A and B were tested.

[2] = system: MDA-MB-436 (BRCA1 mutation) breast cancer cell xenograft; assay: MDA-MB-436 (BRCA1 mutation) breast cancer cell xenograft experiment; type: in vivo; conditions: mice, 100 mg/kg BID orally, MDA-MB-436 xenograft
Protocol: The MDA-MB-436 tumour cell line was maintained in vitro as monolayer culture in DMEM medium modified supplemented with 10% heat inactivated foetal bovine serum at 37° C. in an atmosphere of 5% CO2 in air. The tumour cells were routinely sub-cultured once a week by trypsin-EDTA treatment, not to exceed 4-5 passages. The cells growing in an exponential growth phase were harvested and counted for tumour inoculation.
All mice were inoculated subcutaneously on the right flank with MDA-MB-436 tumour cells (1×10^7) in 0.1 ml of DMEM with Matrigel mixture (1:1 ratio) for tumour development. The treatment started when the mean tumour size reached is approximately 100-150 mm^3. Mice were then be assigned to groups such that the mean tumour volume is the same for each treatment group. The treatments were administered to the tumour-bearing mice orally at 12 hour intervals.
560 mg linezolid was dissolved in 1.4 ml ethanol and 12.6 ml PEG400. The solution was vortexed and sonicated with high energy ultrasonic probe to get a uniform solution. The resultant solution was used for 1 day.
The measurement of tumour size was conducted twice weekly with a calliper and recorded. The tumour volume (mm3) was estimated using the formula: TV=a×b^2/2, where “a” and “b” are long and short diameters of a tumour, respectively.

[3] = UWB1.289, cisplatin 1 μM 24 hours, result in words

## OC[C@H]1O[C@H]([S-])[C@H](O)[C@@H](O)[C@@H]1O.[Au+] [ATG, Aurothioglucose]
[1]
  reduction of proliferation of the cancer cells (BrdU absorbance): effectively reduce proliferation

## O=C(O)CC([S-])C(=O)O.[Au+] (stereo not shown) [ATM, Aurothiomalate]
[1]
  reduction of proliferation of the cancer cells (BrdU absorbance): effectively reduce proliferation

## NC(=O)c1cccc2cn(-c3ccc([C@@H]4CCCNC4)cc3)nc12 [niraparib]
[1]
  reduction of proliferation of the cancer cells (BrdU absorbance): effectively reduce proliferation

## C[C@@H]1COCCN1c1cc(C2([S@](C)(=N)=O)CC2)nc(-c2cc[nH]c3nccc2-3)n1 [AZD, AZD6738]
UWB1.289 cell line; [3]
  proliferation in combination with Aurothiomalate (ATM), compared with the gold complex alone: particularly marked improvement over the gold complexes when used alone
  proliferation in combination with auranofin, compared with the gold complex alone: particularly marked improvement over the gold complexes when used alone
UWB1.289 cell line; UWB1.289, cisplatin 1 μM 24 hours, then olaparib plus the labelled drug for 6 days, result in words
  proliferation in combination with olaparib, compared with olaparib alone: further decreased proliferation when compared to the degree of proliferation observed for olaparib alone

## CC(=O)OC[C@H]1O[C@@H]([S-])[C@H](OC(C)=O)[C@@H](OC(C)=O)[C@@H]1OC(C)=O.CCP(CC)CC.[Au+] [auranofin]
[1]
  reduction of proliferation of the cancer cells (BrdU absorbance): effectively reduce proliferation

## CC(=O)NC[C@H]1CN(c2ccc(N3CCOCC3)c(F)c2)C(=O)O1 [linezolid]
[2]
  reduced tumour size compared to the control group: 38%
[1]
  reduction of proliferation of the cancer cells (BrdU absorbance): reduce proliferation of cancer cells when used alone
UWB1.289 cell line; [3]
  proliferation in combination with Aurothiomalate (ATM), compared with the gold complex alone: particularly marked improvement over the gold complexes when used alone; also recorded: particularly noticeable synergistic effect
  proliferation in combination with auranofin, compared with the gold complex alone: particularly marked improvement over the gold complexes when used alone
UWB1.289 cell line; UWB1.289, combination with a PARPi, result in words
  synergistic effect on proliferation when used with a PARPi: synergistic effect
UWB1.289 cell line; UWB1.289, linezolid 100 nM together with Aurothiomalate (ATM) 30 nM, after cisplatin 1 μM 24 hours
  percentage proliferation: 2%
UWB1.289 cell line; inventors' conclusion, result in words
  proliferation reduction compared with AZD6738: equivalent to proliferation reduction achieved by AZD6738

## CNCc1ccc(-c2[nH]c3cc(F)cc4c3c2CCNC4=O)cc1 [rucaparib]
[1]
  reduction of proliferation of the cancer cells (BrdU absorbance): effectively reduce proliferation

## O=C(c1cc(Cc2n[nH]c(=O)c3ccccc23)ccc1F)N1CCN(C(=O)C2CC2)CC1 [Olaparib]
[1]
  reduction of proliferation of the cancer cells (BrdU absorbance): effectively reduce proliferation
